Results taken from paper PMC8347709 (International Journal of Molecular Sciences, 2021).

Biological target: T1, hCB2R(D80N) (Homo sapiens, UniProt P34972, D80N)
T1 construct: expressed in transfected cells; host or cells: rat striatal cells transduced in vivo with AAV2/7-CaMKII0.4-intron-hCB2R D80N
Test: PET in rat model with local overexpression of hCB2R(D80N) in the right striatum
Type: in vivo
Parameters: reduction of the AUC20–60min by displacement: concentration or dose not given beside the values
Details: for time to peak: TAC; for reduction of the AUC20–60min by displacement: GW405833 i.v. at 20 min p.i.; for change of AUC40–60min by displacement versus vehicle: GW405833 5 mg/kg i.v. 20 min after tracer
From the text: For the uptake studies into the spleen three male Wistar Hun rats (Janvier Laboratories, Le Genest Saint Isle, France) weighing 268 ± 56 g were used. For the uptake studies into the brain, five female Wistar rats weighing 263 ± 13 g carrying the stereotactically injected AAV 2/7-CaMKII0.4-intron-hCB2R D80N (right striatum) and AAV2/7-CaMKII0.4-intron-3flag-eGFP (contralateral, left striatum). Animals were initially anaesthetised with 5% isoflurane and placed on a thermostatically heated animal bed where anaesthesia was maintained with 2% isoflurane in 60% oxygen/38% room air. […] List-mode PET data were binned as a series of attenuation-corrected sinogram frames (12 × 10 s, 6 × 30 s, 5 × 60 s and 10 × 300 s) and were reconstructed by ordered subset expectation maximisation (OSEM3D) with four iterations, six subsets and a voxel size of 0.4 mm^3 (Nucline v2.01, Mediso, Hungary). The analysis of reconstructed datasets was performed with PMOD software (v4.103, PMOD Technologies LLC, Zurich, Switzerland). Non-parametrical analyses of achieved time-activity curves (TACs) were performed with Microsoft Excel to determine the time to peak, the TAC peak value and the area-under-the-zero-momentum curve (AUC):(1) AUC0−tx=∫0txcradioactivity × dt where c (radioactivity) is expressed as a standardised uptake value normalised to the bodyweight in g (SUV), the area-under-first-momentum curve (AUMC):(2) AUMC0−tx=∫0txt × cradioactivity × dt and the mean residence time (MRT):(3) MRT=AUMC0−tx/AUC0−tx

[1] = hCB2R D80N-to-cerebellum, vehicle (10 min prior tracer), n = 3
[2] = hCB2R D80N-to-contralateral, vehicle (10 min prior tracer), n = 3
[3] = same rat model, comparator data ref 68

T1 sequence (P34972 whole entry D80N): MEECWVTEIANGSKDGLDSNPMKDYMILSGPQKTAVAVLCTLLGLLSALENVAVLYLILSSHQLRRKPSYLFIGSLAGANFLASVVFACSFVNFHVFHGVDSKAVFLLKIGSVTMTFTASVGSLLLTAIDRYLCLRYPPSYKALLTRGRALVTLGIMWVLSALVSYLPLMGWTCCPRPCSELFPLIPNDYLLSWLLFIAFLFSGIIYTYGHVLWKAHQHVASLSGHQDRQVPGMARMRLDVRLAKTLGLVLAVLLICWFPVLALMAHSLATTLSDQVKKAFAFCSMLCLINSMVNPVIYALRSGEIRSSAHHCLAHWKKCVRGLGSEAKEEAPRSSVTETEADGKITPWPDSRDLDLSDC

Structure (SMILES): C[C@H]1CC[C@@H](NC(=O)c2cc3cccnc3n(CCCC[18F])c2=O)CC1 [[^18F]LU14]
- time to peak (cerebellum): 1.6 ± 1.4 min
- time to peak (contralateral region): 3.8 ± 1.6 min
- time to peak (hCB2R(D80N) right striatum, rats, i.v., n = 3): 7.4 ± 2.8 min
- AUC (cerebellum): 41.1 ± 5.6 SUV × min
- AUMC (cerebellum): 819 ± 132 SUV × min^2
- MRT (cerebellum): 19.9 ± 1.2 min
- TAC peak value (cerebellum): 2.7 ± 0.0 SUV
- reduction of the AUC20–60min by displacement (compared to the cerebellum): 76%
- reduction of the AUC20–60min by displacement (compared to the contralateral region): 73%
- AUC (contralateral region): 42.6 ± 6.8 SUV × min
- AUMC (contralateral region): 854 ± 165 SUV × min^2
- MRT (contralateral region): 20.0 ± 1.1 min
- TAC peak value (contralateral region): 2.2 ± 0.4 SUV
- change of AUC40–60min by displacement versus vehicle (hCB2R D80N-to-cerebellum): −76.3%
- AUC40–60min (CI95%) (hCB2R D80N-to-cerebellum, displacement by GW405833 5 mg/kg i.v. 20 min after tracer, n = 2): 51 (42 to 60) SUVr × min
- AUC0–20min (CI95%) (hCB2R D80N-to-cerebellum, displacement group (GW405833 5 mg/kg i.v. 20 min after tracer), n = 2): 49 (40 to 59) SUVr × min
- AUC0–20min (CI95%) [1]: 44 (39 to 48) SUVr × min
- AUC40–60min (CI95%) [1]: 215 (190 to 241) SUVr × min
- change of AUC40–60min by displacement versus vehicle (hCB2R D80N-to-contralateral): −73.4%
- AUC40–60min (CI95%) (hCB2R D80N-to-contralateral, displacement by GW405833 5 mg/kg i.v. 20 min after tracer, n = 2): 56 (50 to 62) SUVr × min
- AUC0–20min (CI95%) (hCB2R D80N-to-contralateral, displacement group (GW405833 5 mg/kg i.v. 20 min after tracer), n = 2): 48 (41 to 54) SUVr × min
- AUC0–20min (CI95%) [2]: 40 (37 to 42) SUVr × min
- AUC40–60min (CI95%) [2]: 210 (190 to 231) SUVr × min
- AUC (hCB2R(D80N) right striatum): 155 ± 28 SUV × min
- AUMC (hCB2R(D80N) right striatum): 4349 ± 701 SUV × min^2
- MRT (hCB2R(D80N) right striatum): 28.0 ± 0.4 min
- TAC peak value (hCB2R(D80N) right striatum): 3.3 ± 0.6 SUV
- uptake in the brain region with CB2R overexpression compared to [11C]NE40 [3]: about two-fold
- uptake in the brain region with CB2R overexpression compared to [18F]MA3 [3]: about five-fold
